Measured values as given in patent publication US8163790B2, “Metronidazole cocrystals and imipramine cocrystals” (New Form Pharmaceuticals, Inc., priority 2005, dated 2012).

Key:
[1] = water at 23° C., 900 mL, 100 rpm
[2] = intrinsic dissolution, 900 mL, 100 rpm, 0.50 cm^2; media 34 mM aqueous NaCl, water at 37° C., water at ambient temperature (medium of the value not stated); relative to imipramine HCl
[3] = Intrinsic dissolution of metronidazole:gallic acid cocrystal (Woods apparatus, UV 318 nm); type: physicochemical; details: water at 37° C., 900 mL, 100 rpm, 0.50 cm^2, relative to metronidazole
Protocol: Samples of metronidazole and the metronidazole cocrystal were compressed at 1000 psi for approximately one minute. […] A dissolution medium of water was used at 37° C. […] Metronidazole and the metronidazole:gallic acid cocrystal solutions were analyzed with a Cary 50 UV-VIS single-beam spectrophotometer without dilution at room temperature in a 1.000 cm quartz cuvette. […] Wavelength calibration was performed using holmium oxide.

CN(C)CCCN1c2ccccc2CCc2ccccc21.Cl.O=C(O)c1ccc2ccccc2c1O
imipramine HCl dissolved from the cocrystal ([1]; at 300 minutes): less than 0.0063 mg/mL
dissolution rate compared with imipramine HCl (in words) ([1]; intrinsic dissolution, rate too slow to quantify accurately): much slower rate

CN(C)CCCN1c2ccccc2CCc2ccccc21.Cl [imipramine HCl, Imipramine hydrochloride, reference compound]
imipramine dissolved from imipramine HCl ([1]; in two minutes): 0.013 mg/mL

CN(C)CCCN1c2ccccc2CCc2ccccc21.CN(C)CCCN1c2ccccc2CCc2ccccc21.Cl.Cl.O=C(O)C=CC(=O)O [imipramine HCl:fumaric acid cocrystal]
dissolution rate of the cocrystal as % of the rate of imipramine HCl [2]: about 58%

Cc1ncc([N+](=O)[O-])n1CCO.O=C(O)c1cc(O)c(O)c(O)c1 [metronidazole:gallic acid cocrystal]
dissolution rate of the cocrystal as % of the rate of metronidazole [3]: about 22%
